The results in this text go back to patent US9840501B2, “Morpholin-pyridine derivatives” (Hoffmann-La Roche Inc., priority 2014, dated 2017).

In one assay the target is rat TAAR1 (Rattus norvegicus (Rat), UniProt Q923Y9). In words: Radioligand binding assay on rat TAAR1. Particulars: for Ki: rat TAAR1, membranes of stably transfected HEK-293 cells, second value of the pair, read-out: Ki (μM) mouse/rat: rat. Here is the method: (§1) For the construction of expression plasmids the coding sequences of human, rat and mouse TAAR 1 were amplified from genomic DNA essentially as described by Lindemann et al.. The Expand High Fidelity PCR System (Roche Diagnostics) was used with 1.5 mM Mg^2+ and purified PCR products were cloned into pCR2.1-TOPO cloning vector (Invitrogen) following the instructions of the manufacturer. PCR products were subcloned into the pIRESneo2 vector (BD Clontech, Palo Alto, Calif.), and expression vectors were sequence verified before introduction in cell lines.
rat TAAR1, sequence (Q923Y9 whole entry): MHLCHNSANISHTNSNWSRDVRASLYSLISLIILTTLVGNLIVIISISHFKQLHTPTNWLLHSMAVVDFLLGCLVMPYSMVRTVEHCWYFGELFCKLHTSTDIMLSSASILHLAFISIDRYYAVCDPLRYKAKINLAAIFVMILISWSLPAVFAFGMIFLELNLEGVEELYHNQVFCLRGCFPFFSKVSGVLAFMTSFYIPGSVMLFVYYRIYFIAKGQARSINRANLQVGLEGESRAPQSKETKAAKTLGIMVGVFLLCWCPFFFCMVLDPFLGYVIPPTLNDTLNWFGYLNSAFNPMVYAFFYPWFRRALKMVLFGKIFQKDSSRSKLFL
(§2) For the generation of stably transfected cell lines HEK293 cells were transfected with the pIRESneo2 expression plasmids containing the TAAR coding sequences (described above) with Lipofectamine 2000 (Invitrogen) according to the instructions of the manufacturer, and 24 hrs post transfection the culture medium was supplemented with 1 mg/ml G418 (Sigma, Buchs, Switzerland). After a culture period of about 10 d clones were isolated, expanded and tested for responsiveness to trace amines (all compounds purchased from Sigma) with the cAMP Biotrak Enzyme immunoassay (EIA) System (Amersham) following the non-acetylation EIA procedure provided by the manufacturer.
Radioligand Binding Assay on Rat TAAR1
(§3) Membrane Preparation and Radioligand Binding.
(§4) Cells were released from culture flasks using trypsin/EDTA, harvested, washed twice with ice-cold PBS (without Ca^2+ and Mg^2+), pelleted at 1′000 rpm for 5 min at 4° C., frozen and stored at −80° C. Frozen pellets were suspended in 20 ml HEPES-NaOH (20 mM, pH 7.4) containing 10 mM EDTA and homogenized with a Polytron (PT 6000, Kinematica) at 14′000 rpm for 20 s. The homogenate was centrifuged at 48′000×g for 30 min at 4° C. Subsequently, the supernatant was removed and discarded, and the pellet resuspended in 20 ml HEPES-NaOH (20 mM, pH 7.4) containing 0.1 mM EDTA using the Polytron (20 s at 14′000 rpm). This procedure was repeated and the final pellet resuspended in HEPES-NaOH containing 0.1 mM EDTA and homogenized using the Polytron. Typically, aliquots of 2 ml membrane portions were stored at −80° C. With each new membrane batch the dissociation constant (Kd) was determined via a saturation curve. […] Nonspecific binding was defined as the amount of ^3[H]—(S)-4-[(ethyl-phenyl-amino)-methyl]-4,5-dihydro-oxazol-2-ylamine bound in the presence of 10 μM unlabeled ligand. All compounds were tested at a broad range of concentrations (10 pM to 10 μM) in duplicates. […] The 96 deep well plates were incubated for 1 hr at 4° C. Incubations were terminated by rapid filtration through Unifilter-96 plates (Packard Instrument Company) and glass filters GF/C (Perkin Elmer) presoaked for 1 hr in polyethylenimine (0.3%) and washed 3 times with 1 ml of cold binding buffer. After addition of 45 μl of Microscint 40 (PerkinElmer) the Unifilter-96 plate was sealed and after 1 hr the radioactivity counted using a TopCount Microplate Scintillation Counter (Packard Instrument Company).

The next assay deals with mouse TAAR1 (Mus musculus (Mouse), UniProt Q923Y8). In words: Radioligand binding assay on mouse TAAR1. The following applies: for Ki: mouse TAAR1, membranes of stably transfected HEK-293 cells, first value of the pair, read-out: Ki (μM) mouse/rat: mouse. Here is the method:
as §1, §2
Radioligand Binding Assay on Mouse TAAR1
as §3
as §4, with “1,000” for “1′000”, “48,000×g” for “48′000×g”

mouse TAAR1, sequence (Q923Y8 whole entry): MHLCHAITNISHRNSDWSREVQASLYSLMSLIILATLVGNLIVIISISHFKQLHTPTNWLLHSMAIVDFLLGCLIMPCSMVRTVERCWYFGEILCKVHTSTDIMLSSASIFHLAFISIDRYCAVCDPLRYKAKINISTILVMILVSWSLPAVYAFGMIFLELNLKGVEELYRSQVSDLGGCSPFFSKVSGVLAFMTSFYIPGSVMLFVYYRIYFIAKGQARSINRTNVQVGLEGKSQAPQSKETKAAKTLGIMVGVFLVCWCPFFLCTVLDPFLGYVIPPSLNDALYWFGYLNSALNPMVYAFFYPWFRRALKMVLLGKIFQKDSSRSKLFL

Take `CCc1n[nH]c(C(=O)Nc2ccc([C@@H]3CNCCO3)nc2)c1Br` [Example 78, 4-Bromo-3-ethyl-N-[6-[(2S)-morpholin-2-yl]-3-pyridyl]-1H-pyrazole-5-carboxamide]: the values for the Ki at rat TAAR1 and on mouse TAAR1 were 0.041 µM and 0.0056 µM, respectively.
Consider `CCCc1n[nH]c(C(=O)Nc2ccc([C@@H]3CNCCO3)nc2)c1F` [Example 79, 4-Fluoro-N-[6-[(2S)-morpholin-2-yl]-3-pyridyl]-3-propyl-1H-pyrazole-5-carboxamide], for which the Ki at rat TAAR1 worked out at 0.0568 µM; at mouse TAAR1, 0.0074 µM.
For the compound `CC(C)Cc1n[nH]c(C(=O)Nc2ccc([C@@H]3CNCCO3)nc2)c1F` [Example 89, 4-Fluoro-3-isobutyl-N-[6-[(2S)-morpholin-2-yl]-3-pyridyl]-1H-pyrazole-5-carboxamide], the Ki on rat TAAR1 was determined as 0.0297 µM; on mouse TAAR1 it was 0.0133 µM.
As to `O=C(Nc1cnc(C2CNCCO2)c(Cl)c1)c1ccnc(C(F)(F)F)c1` (racemic) [Example 107, (RS)—N-(5-Chloro-6-morpholin-2-yl-3-pyridyl)-2-(trifluoromethyl)pyridine-4-carboxamide], the Ki came to 0.371 µM at rat TAAR1 and 0.143 µM at mouse TAAR1.
As to `Clc1ccc(Nc2ccc(C3CNCCO3)nc2)cc1` (racemic) [Example 1, (RS)—N-(4-Chlorophenyl)-6-morpholin-2-yl-pyridin-3-amine], the Ki on rat TAAR1 is 0.071 µM; at mouse TAAR1, 0.0017 µM.
Consider `Clc1ccc(Nc2ccc([C@H]3CNCCO3)nc2)nc1` [Example 26, N-(5-Chloro-2-pyridyl)-6-[(2R)-morpholin-2-yl]pyridin-3-amine], for which the Ki at rat TAAR1 turned out to be 0.424 µM; at mouse TAAR1, 0.0118 µM.
On to `CC(C)c1cc(C(=O)Nc2ccc([C@@H]3CNCCO3)nc2)[nH]n1` [Example 38, 3-Isopropyl-N-[6-[(2S)-morpholin-2-yl]-3-pyridyl]-1H-pyrazole-5-carboxamide], for which the Ki stood at 0.0727 µM at rat TAAR1 and 0.0263 µM on mouse TAAR1.
For `O=C(Nc1cccc(Cl)c1)Nc1cnc(C2CNCCO2)c(F)c1` (racemic) [Example 112, (RS)-1-(3-Chlorophenyl)-3-(5-fluoro-6-morpholin-2-yl-3-pyridyl)urea], the Ki at rat TAAR1 is 0.0286 µM; at mouse TAAR1, 0.0102 µM.
As to `CCCc1c(Cl)c(C(=O)Nc2ccc([C@H]3CNCCO3)nc2)nn1C` [Example 48, 4-Chloro-1-methyl-N-[6-[(2R)-morpholin-2-yl]-3-pyridyl]-5-propyl-pyrazole-3-carboxamide], the Ki on rat TAAR1 was 1.37 µM; at mouse TAAR1 it was 0.0199 µM.
As usually defined, the Kd is a measure of binding affinity in units of concentration. Consider `CCN(C[C@H]1COC(N)=N1)c1ccccc1` [^3[H]—(S)-4-[(ethyl-phenyl-amino)-methyl]-4,5-dihydro-oxazol-2-ylamine, reference compound], for which the Kd on rat TAAR1 (rat TAAR1 membranes, saturation curve, usual value per membrane batch, read-out: dissociation constant (Kd) of the radioligand) was about 2.3 nM; at mouse TAAR1 (mouse TAAR1 membranes, saturation curve, usual value per membrane batch, read-out: dissociation constant (Kd) of the radioligand), about 0.7 nM.
With `FC(F)(F)c1ccc(Nc2ccc([C@@H]3CNCCO3)nc2)nc1` [Example 29, N-[6-[(2S)-Morpholin-2-yl]-3-pyridyl]-5-(trifluoromethyl)pyridin-2-amine], the Ki stood at 0.0103 µM at rat TAAR1 and 0.0035 µM on mouse TAAR1.
Turning to `FC(F)(F)c1ccnc(Nc2ccc([C@H]3CNCCO3)nc2)c1` [Example 28, 6-[(2R)-Morpholin-2-yl]-N-[4-(trifluoromethyl)-2-pyridyl]pyridin-3-amine], the Ki on rat TAAR1 was 0.606 µM; at mouse TAAR1 it was 0.11 µM.
For `O=C(Nc1ccc([C@@H]2CNCCO2)nc1)c1[nH]nc(C2CC2)c1Cl` [Example 40, 4-Chloro-3-cyclopropyl-N-[6-[(2S)-morpholin-2-yl]-3-pyridyl]-1H-pyrazole-5-carboxamide] the same measures were 0.0428 µM and 0.0089 µM.
`O=C(Nc1ccc([C@H]2CNCCO2)nc1)c1ccc(Cl)cc1` [Example 51, 4-Chloro-N-[6-[(2R)-morpholin-2-yl]-3-pyridyl]benzamide]: the Ki at rat TAAR1 amounted to 0.212 µM; at mouse TAAR1 it was 0.0039 µM.
As to `Fc1ccc(Nc2ccc(C3CNCCO3)nc2)cc1` (racemic) [Example 5, (RS)—N-(4-Fluorophenyl)-6-morpholin-2-yl-pyridin-3-amine], the Ki came out at 0.372 µM on rat TAAR1 and 0.0065 µM on mouse TAAR1.
Taken in the same sequence, the figures for `Cc1cc(NC(=O)c2ccnc(C(F)(F)F)c2)cnc1C1CNCCO1` (racemic) [Example 117, (RS)—N-(5-Methyl-6-morpholin-2-yl-3-pyridyl)-2-(trifluoromethyl)pyridine-4-carboxamide] were 1.41 µM and 0.464 µM.
For the compound `CC(C)c1n[nH]c(C(=O)Nc2ccc([C@@H]3CNCCO3)nc2)c1Cl` [Example 120, 4-Chloro-3-isopropyl-N-[6-[(2S)-morpholin-2-yl]-3-pyridyl]-1H-pyrazole-5-carboxamide], the Ki on rat TAAR1 came out at 0.0203 µM; on mouse TAAR1 it was 0.0311 µM.
Consider `O=C(Nc1ccc([C@@H]2CNCCO2)nc1)c1ccc(Cl)cc1` [Example 31, 4-Chloro-N-[6-[(2S)-morpholin-2-yl]-3-pyridyl]benzamide], for which the Ki at rat TAAR1 came out at 0.102 µM; on mouse TAAR1, 0.003 µM.
For `CCCCc1cc(C(=O)Nc2ccc([C@@H]3CNCCO3)nc2)[nH]n1` [Example 91, 3-Butyl-N-[6-[(2S)-morpholin-2-yl]-3-pyridyl]-1H-pyrazole-5-carboxamide] the same measures were 0.0061 µM and 0.0031 µM.
In the case of `Clc1ccc(Nc2ccc([C@H]3CNCCO3)nc2)cc1` [Example 24, N-(4-Chlorophenyl)-6-[(2R)-morpholin-2-yl]pyridin-3-amine], the Ki at rat TAAR1 worked out at 0.182 µM; at mouse TAAR1 it was 0.0124 µM.
For the compound `O=C(Nc1ccc(C2CNCCO2)nc1)c1ccc(F)cc1` (racemic) [Example 14, (RS)-4-Fluoro-N-(6-morpholin-2-yl-3-pyridyl)benzamide], the Ki on rat TAAR1 is 0.917 µM; on mouse TAAR1, 0.0084 µM.
Consider `O=C(Nc1ccc([C@H]2CNCCO2)nc1)c1[nH]nc(C2CC2)c1F` [Example 86, 3-Cyclopropyl-4-fluoro-N-[6-[(2R)-morpholin-2-yl]-3-pyridyl]-1H-pyrazole-5-carboxamide], for which the Ki at rat TAAR1 amounted to 0.156 µM; at mouse TAAR1 it was 0.0074 µM.
Turning to `CCCc1c(Cl)c(C(=O)Nc2ccc([C@@H]3CNCCO3)nc2)nn1C` [Example 46, 4-Chloro-1-methyl-N-[6-[(2S)-morpholin-2-yl]-3-pyridyl]-5-propyl-pyrazole-3-carboxamide], the figures for the Ki at rat TAAR1 and on mouse TAAR1 were 0.651 µM and 0.0188 µM, respectively.
As to `FC(F)(F)c1ccc(Nc2ccc([C@H]3CNCCO3)nc2)nc1` [Example 49, N-[6-[(2R)-Morpholin-2-yl]-3-pyridyl]-5-(trifluoromethyl)pyridin-2-amine], the Ki at rat TAAR1 came out at 0.066 µM; at mouse TAAR1 it was 0.0052 µM.
